Patent publication US4444767A, “Derivatives of 3-amino-pregn-5-ene” (Roussel Uclaf, priority 1981, dated 1984)
Structures can show the parent of a compound that is named as a salt.

Experiments:
mice = experiment: Acute toxicity; type: in vivo; conditions: oral
immunitary systems = experiment: Test of Rosettes to sheep red corpuscles; type: in vivo; conditions: Rattus norvegicus, Splenocyte; 3 month old male rats, oral daily from day -1 to day 1; splenocytes after 7 days; read-out: immunostimulating dose (dose which multiplies by 2 the percentage of rosettes observed in the control animals)
Procedure: The administration to animals of a product capable of stimulating the immunitary systems leads to an increase of their capacity of reaction to the injection of a immunogenic product. 3 month old male rats were sensitized by intraperitoneal administration of sheep erythrocytoes on day 0 and 7 days later, the spleen was removed and splenocytes were placed in contact with sheep erythrocytes. The percentage of leucocytes around which the erythrocytes were in the form of rosettes was determined. The test compounds were orally administered daily from day-1 to day 1 and immunostimulating dose is the dose of product which multiplies by 2 the percentage of rosettes observed in the control animals.

CC(=O)[C@H]1CC[C@H]2[C@@H]3CC=C4C[C@H](NC(=O)[C@H](C)N)CC[C@]4(C)[C@H]3CC[C@]12C [Example 3, (2S)-2-amino-N-(20-oxopregn-5-ene 3α-yl)propionamide hydrochloride]
LD0 (maximum dose which did not cause any mortality after 8 days) (mice): > 400 mg/kg | ED (2-fold rosettes) (immunitary systems): 2 mg/kg

CC(=O)[C@H]1CC[C@H]2[C@@H]3CC=C4C[C@H](NC(=O)CN)CC[C@]4(C)[C@H]3CC[C@]12C [Example 4, 2-amino N-(20 oxopregn-5-ene 3α-yl) acetamide hydrochloride]
LD0 (maximum dose which did not cause any mortality after 8 days) (mice): 600 mg/kg | ED (2-fold rosettes) (immunitary systems): 5 mg/kg

C[C@H](O)[C@H]1CC[C@H]2[C@@H]3CC=C4C[C@H](NC(=O)CN)CC[C@]4(C)[C@H]3CC[C@]12C.Cl [Example 6, 2-amino-N-[(20S) 20-hydroxy-pregn-5-ene-3α-yl]-acetamide hydrochloride]
LD0 (maximum dose which did not cause any mortality after 8 days) (mice): > 400 mg/kg
